Data on six compounds can be found in ChEMBL document CHEMBL1201862, “PubChem BioAssay data set” (2004).

Each structure is given as a SMILES string. Active and inactive are the calls of the source. A value given as a limit tells only on which side of the number the result lay.

Assay [1] addresses Alkaline phosphatase, placental type (Homo sapiens, UniProt P05187). As to the kind of experiment: PLAP enzyme inhibitors, confirmation, biochemical, luminescence (AID 1512). Format: functional.
Assay [2] concerns the target T1, Alkaline phosphatase, tissue-nonspecific isozyme (Homo sapiens, UniProt P05186).
T1 sequence (P05186 whole entry): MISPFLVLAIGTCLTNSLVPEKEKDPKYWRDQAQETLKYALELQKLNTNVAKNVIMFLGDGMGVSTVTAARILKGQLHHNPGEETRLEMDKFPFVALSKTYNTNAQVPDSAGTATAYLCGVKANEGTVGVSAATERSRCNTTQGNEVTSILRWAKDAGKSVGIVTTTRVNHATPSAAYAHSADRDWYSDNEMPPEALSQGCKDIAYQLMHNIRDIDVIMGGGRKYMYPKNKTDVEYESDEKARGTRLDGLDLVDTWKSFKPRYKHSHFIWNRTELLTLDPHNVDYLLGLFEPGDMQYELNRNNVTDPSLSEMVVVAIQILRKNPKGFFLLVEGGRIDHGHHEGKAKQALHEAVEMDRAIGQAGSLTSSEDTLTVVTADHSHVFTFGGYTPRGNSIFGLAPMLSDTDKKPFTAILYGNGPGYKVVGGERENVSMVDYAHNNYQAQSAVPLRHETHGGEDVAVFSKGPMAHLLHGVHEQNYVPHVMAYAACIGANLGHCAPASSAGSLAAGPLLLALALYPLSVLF
Put plainly: human TNAP enzyme inhibitors, SAR follow-up, biochemical, luminescent, dose response (AID 1056).

Assay [3] has as its target Glyceraldehyde-3-phosphate dehydrogenase (Homo sapiens, UniProt P04406).
The subject of assay [4] is INS1. As to the kind of experiment: beta cell apoptosis inhibitors, cytokine rescue, dose response, luminescence, retest (AID 449756).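 Further: cell death triggered by IL-1 beta plus TNF-alpha plus IFN-gamma mixture; protective hits raise ATP signal compared with cytokine alone wells.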 It is filed as functional, cell-based. As to conditions: Rattus norvegicus.
Assay [5] concerns Streptococcus. Put plainly: Group A Streptococcus viability loss, dose response, counter-screen for streptokinase expression inhibitor project, luminescence, BacTiterGlo (AID 1915).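 Further: potency for reduction of bacterial viability or growth.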 Format: functional, organism-based. In general terms: Counterscreens check selectivity or assay interference.
The test system of assay [6] is Streptococcus sp. 'group A'. Put plainly: growth inhibition of control SK(-) GAS strain, dose response, counter-screen for streptokinase expression inhibitor project, luminescence, kanamycin, BacTiterGlo, confirmation (AID 1900). Format: functional, organism-based.
A short description of assay [7]: Intein inhibitors as potential Tuberculosis drugs, a cytotoxicity screen. [Related pubchem assays (depositor defined):AID2221, AID2223, AID434968, AID435010, AID449749, AID449750, AID489010]. Format: functional.
Assay [8] can be described thus: cytotoxicity toward NIH3T3 fibroblasts, dose response, counter-screen, cell-based, ATP luminescence, mouse fibroblasts (AID 2010).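 Further: cells exposed to compound for about 90 hours before reading.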 It is filed as functional.
Assay [9] is described as follows: inhibitors of intracellular T. cruzi replication, confirmation, NIH3T3 host cells, beta-gal luminescence (AID 2044).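 Further: intracellular parasites grown in NIH/3T3 mouse fibroblasts as host cells; luminescent beta-galactosidase reporter signal from transgenic T. cruzi replicating inside host cells; inhibitors lower the luminescence signal.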 Format: functional, cell-based.
For assay [10], the system named is BJ. As to the kind of experiment: cytotoxicity toward BJ-TERT fibroblasts, dose response, cell-based, RAS-independent, luminescence (AID 1933). It is filed as functional. As to conditions: Homo sapiens.
A short description of assay [11]: cytotoxicity toward DRD oncogenic fibroblasts, dose response, cell-based, non-viral oncogenic, luminescence (AID 1934). It is filed as functional. The conditions noted are these: Homo sapiens.
For assay [12], the system named is BJ. Put plainly: cells. It is filed as functional, cell-based. The conditions noted are these: Homo sapiens.
For assay [13], the target named is T2, Protein skinhead-1 (Caenorhabditis elegans, UniProt P34707).
T2 sequence (P34707 whole entry): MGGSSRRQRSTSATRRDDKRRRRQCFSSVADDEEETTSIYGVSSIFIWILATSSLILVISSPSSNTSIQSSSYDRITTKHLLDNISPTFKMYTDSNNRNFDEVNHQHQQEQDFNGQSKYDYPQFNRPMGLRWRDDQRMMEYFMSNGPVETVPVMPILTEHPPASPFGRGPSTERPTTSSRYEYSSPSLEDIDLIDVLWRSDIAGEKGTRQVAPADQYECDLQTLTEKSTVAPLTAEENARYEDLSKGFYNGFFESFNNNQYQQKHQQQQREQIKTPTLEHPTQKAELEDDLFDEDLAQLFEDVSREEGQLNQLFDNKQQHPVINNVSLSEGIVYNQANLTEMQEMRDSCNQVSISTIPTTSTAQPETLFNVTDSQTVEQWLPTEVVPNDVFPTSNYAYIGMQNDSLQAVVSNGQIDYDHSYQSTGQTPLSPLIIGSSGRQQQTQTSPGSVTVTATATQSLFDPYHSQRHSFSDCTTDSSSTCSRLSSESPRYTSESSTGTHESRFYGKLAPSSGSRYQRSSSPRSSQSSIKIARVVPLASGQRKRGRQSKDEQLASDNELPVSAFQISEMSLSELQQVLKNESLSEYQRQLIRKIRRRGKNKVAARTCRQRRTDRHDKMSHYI
It is filed as functional.

Assay [14] deals with BJ. As to the kind of experiment: cytotoxicity toward BJ-TERT-LT-ST fibroblasts, dose response, cell-based, RAS-independent, luminescence (AID 1935).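 Further: BJ fibroblasts immortalized with TERT plus LT and ST oncogenes.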 It is filed as functional. As to conditions: Homo sapiens.
Assay [15] in a line: cytotoxicity in HEK-293T cells, dose response, cytotoxicity control for TCR NF-kB inhibitor project, luminescence, T-cell screen hits (AID 489026).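 Further: cells exposed to compound about 14 hours before the viability readout.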 Format: functional, cell-based.
The target in assay [16] is Heat shock protein HSP 90-alpha (Homo sapiens, UniProt P07900). Format: functional, organism-based.
The target of assay [17] is T3, Replicative DNA helicase DnaB (Mycobacterium tuberculosis, UniProt P9WMR3).
T3 sequence (P9WMR3 whole entry): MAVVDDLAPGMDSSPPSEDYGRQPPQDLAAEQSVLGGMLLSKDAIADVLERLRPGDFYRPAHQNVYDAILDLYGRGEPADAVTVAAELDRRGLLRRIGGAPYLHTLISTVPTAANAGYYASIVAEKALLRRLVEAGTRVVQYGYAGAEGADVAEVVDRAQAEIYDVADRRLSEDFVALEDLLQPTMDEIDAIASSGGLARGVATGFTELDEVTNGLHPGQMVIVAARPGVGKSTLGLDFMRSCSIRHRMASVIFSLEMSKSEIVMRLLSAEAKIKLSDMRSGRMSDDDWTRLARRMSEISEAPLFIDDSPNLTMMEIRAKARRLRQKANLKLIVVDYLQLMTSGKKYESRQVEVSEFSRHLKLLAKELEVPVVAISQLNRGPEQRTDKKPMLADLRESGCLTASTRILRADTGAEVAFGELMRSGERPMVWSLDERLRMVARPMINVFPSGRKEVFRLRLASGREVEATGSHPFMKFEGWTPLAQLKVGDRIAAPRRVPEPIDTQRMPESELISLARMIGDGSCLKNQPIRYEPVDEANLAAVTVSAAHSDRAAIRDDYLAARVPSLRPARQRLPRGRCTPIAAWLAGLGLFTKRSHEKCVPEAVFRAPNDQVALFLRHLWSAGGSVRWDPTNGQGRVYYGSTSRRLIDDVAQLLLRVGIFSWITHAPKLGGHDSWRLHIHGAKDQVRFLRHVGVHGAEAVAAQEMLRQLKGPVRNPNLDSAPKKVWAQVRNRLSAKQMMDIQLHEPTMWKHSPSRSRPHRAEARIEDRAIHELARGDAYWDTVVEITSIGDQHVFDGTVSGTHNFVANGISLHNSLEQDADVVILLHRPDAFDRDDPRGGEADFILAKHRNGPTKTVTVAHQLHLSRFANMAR
As to the kind of experiment: DnaB intein splicing inhibitors, dose response, biochemical, cell-free fluorescence (AID 449749). It is filed as functional.

Assay [18] addresses T4, Protein RecA (Mycobacterium tuberculosis, UniProt P9WHJ3).
T4 sequence (P9WHJ3 whole entry): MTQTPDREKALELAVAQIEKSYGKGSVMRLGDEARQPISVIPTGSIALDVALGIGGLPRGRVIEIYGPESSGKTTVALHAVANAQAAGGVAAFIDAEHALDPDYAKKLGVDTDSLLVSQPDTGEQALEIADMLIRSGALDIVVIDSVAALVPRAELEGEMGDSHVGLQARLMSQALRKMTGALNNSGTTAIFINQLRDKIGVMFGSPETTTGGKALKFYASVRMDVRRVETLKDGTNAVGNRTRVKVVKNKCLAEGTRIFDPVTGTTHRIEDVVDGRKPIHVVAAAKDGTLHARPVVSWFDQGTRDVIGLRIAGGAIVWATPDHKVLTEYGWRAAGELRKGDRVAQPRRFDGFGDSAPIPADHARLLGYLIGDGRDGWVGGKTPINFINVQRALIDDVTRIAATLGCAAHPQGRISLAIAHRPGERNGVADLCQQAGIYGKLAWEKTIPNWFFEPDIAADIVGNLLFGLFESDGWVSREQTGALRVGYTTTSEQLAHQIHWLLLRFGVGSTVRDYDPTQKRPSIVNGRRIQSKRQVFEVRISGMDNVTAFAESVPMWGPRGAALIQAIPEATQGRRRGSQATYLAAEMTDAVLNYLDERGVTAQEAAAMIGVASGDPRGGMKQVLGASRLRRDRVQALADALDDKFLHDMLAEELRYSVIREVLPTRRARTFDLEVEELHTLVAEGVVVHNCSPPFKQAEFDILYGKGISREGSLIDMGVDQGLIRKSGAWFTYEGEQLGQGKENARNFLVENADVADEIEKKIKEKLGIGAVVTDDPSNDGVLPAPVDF
As to the kind of experiment: Fluorescence Cell-Free Homogeneous Dose Retest to Identify Inhibitors of RecA-Intein Splicing Activity. [Related pubchem assays (depositor defined):AID2097, AID2223, AID489010, AID492950]. It is filed as functional.

Assay [19] concerns CHO-K1. As to the kind of experiment: Counterscreen for antagonists of the orexin 1 receptor (OX1R; HCRTR1): Homogeneous time resolved fluorescence (HTRF)-based cell-based dose response assay to identify antagonists of the parental CHO-K1 cell line. [Related pubchem assays (depositor defined):AID434989, AID435008, AID463079, AID485270, AID492963, AID492964, AID492965, AID493232, AID504699, AID504701]. Format: functional. The conditions noted are these: Cricetulus griseus.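 Further: potency for inhibition of ATP-stimulated IP1 production as antagonists.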

For assay [20], the target named is T5, Orexin/Hypocretin receptor type 1 (Homo sapiens, UniProt O43613).
T5 sequence (O43613 whole entry): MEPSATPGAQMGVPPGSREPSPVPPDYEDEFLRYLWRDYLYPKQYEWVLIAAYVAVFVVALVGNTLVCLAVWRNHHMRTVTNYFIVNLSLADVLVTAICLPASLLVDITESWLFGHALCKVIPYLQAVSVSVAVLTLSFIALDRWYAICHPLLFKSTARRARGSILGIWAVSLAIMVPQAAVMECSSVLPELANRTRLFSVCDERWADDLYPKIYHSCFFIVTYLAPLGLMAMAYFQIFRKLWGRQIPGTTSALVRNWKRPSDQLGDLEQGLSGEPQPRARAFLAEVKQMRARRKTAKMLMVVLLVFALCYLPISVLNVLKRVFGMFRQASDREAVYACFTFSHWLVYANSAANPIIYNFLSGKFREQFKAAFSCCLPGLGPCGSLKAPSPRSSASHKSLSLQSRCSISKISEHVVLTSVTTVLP
As to the kind of experiment: Homogeneous Time Resolved Fluorescence (HTRF)-based cell-based high throughput dose response assay for antagonists of the orexin 1 receptor (OX1R; HCRTR1). [Related pubchem assays (depositor defined):AID434989, AID435008, AID463079, AID485270, AID492963, AID492964, AID492965, AID493232, AID504717, AID504718]. Format: functional. (TR-FRET usually uses a lanthanide donor and a delayed reading to cut background.)

Assay [21] concerns the target T5, Orexin/Hypocretin receptor type 1. As to the kind of experiment: Fluorescence-based cell-based high throughput dose response assay for antagonists of the orexin 1 receptor (OX1R; HCRTR1). [Related pubchem assays (depositor defined):AID434989, AID435008, AID463079, AID485270, AID492963, AID492964, AID492965, AID493232, AID504717, AID504718]. It is filed as functional.

A short description of assay [22]: Counterscreen for antagonists of the orexin 1 receptor (OX1R; HCRTR1): Fluorescence-based cell-based high throughput dose response assay to identify antagonists of the parental CHO cell line. [Related pubchem assays (depositor defined):AID434989, AID435008, AID463079, AID485270, AID492963, AID492964, AID492965, AID493232, AID504699, AID504701]. Format: functional.
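Wherever CC50 is given: cells exposed to compound for 72 hours before luminescence readout.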

Chain of Alkaline phosphatase, placental type (P05187 whole entry): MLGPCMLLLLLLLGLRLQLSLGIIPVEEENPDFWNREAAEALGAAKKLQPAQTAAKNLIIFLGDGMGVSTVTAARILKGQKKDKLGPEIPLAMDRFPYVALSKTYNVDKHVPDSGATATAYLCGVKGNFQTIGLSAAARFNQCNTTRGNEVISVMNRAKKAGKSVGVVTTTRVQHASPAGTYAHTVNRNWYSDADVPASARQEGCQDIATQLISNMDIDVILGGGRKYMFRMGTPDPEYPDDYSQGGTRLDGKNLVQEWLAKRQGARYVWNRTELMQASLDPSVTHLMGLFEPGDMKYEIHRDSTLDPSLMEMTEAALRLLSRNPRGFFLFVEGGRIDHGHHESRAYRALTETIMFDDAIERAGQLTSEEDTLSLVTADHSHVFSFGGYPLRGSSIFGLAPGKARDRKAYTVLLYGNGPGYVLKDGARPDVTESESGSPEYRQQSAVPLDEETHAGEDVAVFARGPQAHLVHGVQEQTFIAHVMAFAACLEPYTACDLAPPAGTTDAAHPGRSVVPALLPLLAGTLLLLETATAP
Chain of Glyceraldehyde-3-phosphate dehydrogenase (P04406 whole entry): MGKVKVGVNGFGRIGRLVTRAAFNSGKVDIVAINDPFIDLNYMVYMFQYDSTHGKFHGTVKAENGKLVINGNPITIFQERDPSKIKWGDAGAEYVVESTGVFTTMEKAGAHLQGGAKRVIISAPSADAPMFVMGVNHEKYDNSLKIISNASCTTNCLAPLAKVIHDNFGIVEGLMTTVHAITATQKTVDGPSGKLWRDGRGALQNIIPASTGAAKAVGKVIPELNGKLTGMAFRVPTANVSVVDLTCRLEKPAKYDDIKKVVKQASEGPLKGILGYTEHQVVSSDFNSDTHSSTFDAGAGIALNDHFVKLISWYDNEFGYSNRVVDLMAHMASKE

Broadly, the IC50 is the midpoint of a concentration-inhibition curve. Consider `O=[N+]([O-])c1ccc(-c2n[nH]c(-c3ccccc3)n2)cc1`, for which the IC50 in assay [1] is > 100 µM (inactive); in assay [2] it was > 100 µM (inactive); in assay [3] it was > 100 µM (not active).

The term AC50 denotes the concentration at which the activity in the assay is half-maximal. Broadly, the EC50 is the concentration needed to bring the measured effect to its halfway point. The term CC50 denotes the concentration giving 50% cytotoxicity. Consider `O=C(NC(N=C(S)Nc1ccc(Cl)cc1Cl)C(Cl)(Cl)Cl)c1cccc([N+](=O)[O-])c1` (stereo not given), for which the AC50 in [4] is 6.08 µM (active). Besides, the half-maximal effective concentration (EC50) in assay [5] is 4.8 µM (active); in assay [6], 1.37 µM (active); in [8], 8.05 µM (active); in assay [9], 1.14 µM (active). In assay [7], the half-maximal cytotoxic concentration (CC50) was 11 µM (active).

In the case of `O=C(c1ccc(Br)cc1)c1cc([N+](=O)[O-])ccc1N1CCOCC1`, the concentration giving a half-maximal response (EC50) in assay [10] is 7.48 µM (active); in assay [11], 2.55 µM (active); in [12] it was 14.8 µM (active); in assay [14] it was 2.91 µM (inconclusive). The concentration for half-maximal inhibition (IC50) in assay [13] was 44.7 µM (active); in [15] it was > 80 µM (inactive).

As for `CC1(C)N=C(SCC(=O)Nc2ccc(Cl)cc2)C(c2ccc(Cl)cc2)=N1`, the AC50 in [16] is 11.3 µM (active); in assay [17], 3.03 µM (active). Further, the CC50 in [7] is > 40 µM (active). Further, the EC50 in [18] was 4.7 µM (active).

With `CCOC(=O)C1=C(COC(=O)c2ccc3ccccc3c2O)NC(=O)NC1C` (stereo not given), the IC50 is 33.6 µM (inactive) in [19], 1.62 µM (active) in [20], 2.35 µM (active) in [21] and 37.2 µM (inactive) in assay [22].

`O=C(Cn1cnnn1)c1ccc(O)c(O)c1`: the half-maximal inhibitory concentration (IC50) is 16.4 µM (active) in [1] and > 100 µM (inactive) in assay [2].
